Source: patent US12679807B2 (MERCK SHARP & DOHME LLC, priority 2020, dated 2026)

What follows are compounds tested against T1, GCS enzyme contained within Golgi preparations isolated from human A375 malignant melanoma skin cells (Homo sapiens, UniProt Q16739) (assay: UDP-Glo glucosylceramide synthase biochemical assay). Settings: crude Golgi preparation from A375 cells; C6 ceramide and UDP-glucose substrates; 20 h incubation at room temperature; UDP detected by luminescence.
T1 construct: endogenous levels of GCS enzyme contained within Golgi preparations isolated from human A375 malignant melanoma skin cells; endogenous in cells; host or cells: A375 human malignant melanoma cells (crude Golgi preparation)
T1 sequence (Q16739 1-394): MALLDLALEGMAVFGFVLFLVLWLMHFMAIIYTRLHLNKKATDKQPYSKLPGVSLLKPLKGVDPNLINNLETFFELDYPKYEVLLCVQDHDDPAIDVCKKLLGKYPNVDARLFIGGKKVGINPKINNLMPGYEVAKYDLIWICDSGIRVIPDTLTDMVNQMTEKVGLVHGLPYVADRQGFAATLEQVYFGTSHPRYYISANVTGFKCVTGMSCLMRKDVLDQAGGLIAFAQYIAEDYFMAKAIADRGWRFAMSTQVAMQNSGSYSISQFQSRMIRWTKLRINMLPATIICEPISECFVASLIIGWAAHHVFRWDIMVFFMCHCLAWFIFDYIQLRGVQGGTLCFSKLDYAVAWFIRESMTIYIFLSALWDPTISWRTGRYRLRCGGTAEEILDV
Description: UDP-Glo™ Glucosylceramide Synthase Biochemical Assay
A UDP-Glo™ glucosylceramide synthase biochemical assay was utilized to evaluate the effect of test compounds on the activity of endogenous levels of GCS enzyme contained within Golgi preparations isolated from human A375 malignant melanoma skin cells. The UDP-Glo™ glucosylceramide synthase assay uses UDP-Glucose as a nucleotide-glycosyl donor and ceramide as substrate acceptor molecules. In the reaction, glucosylceramide synthase (GCS) transfers glucose from UDP-Glucose to ceramide. Glucosylceramide and UDP are released as products.
Using Promega's UDP-Glo™ Glycosyltransferase assay kit (Promega Corporation, Madison, WI, USA (Promega)), GCS activity was indirectly measured by detecting the amount of UDP produced. An aliquot of GCS enzyme (1.5 μg crude golgi preparation, total protein) and titrated test compound were aliquoted to each well and incubated for 30 minutes at room temperature. […] An equivalent volume of substrate mixture was then added to each well. Following a 20 h incubation at room temperature to allow for GCS turnover of substrate, an equal volume of UDP detection reagent (Promega) was added to each well and incubated for an additional 75 minutes at room temperature to simultaneously convert the accumulated UDP product into ATP and generate light in a luciferase reaction. The generated light was detected using a luminometer. […] luminescence values (RLUs) were normalized to mean “min” and “max” effects, as determined on each plate. […] Values for % Emax and EC50 were determined by best-fitting the normalized data to a curve in Activity Base along a four-parameter logistic nonlinear regression (4PL) model (based on the Levenberg-Marquardt algorithm and defined by the equation below):
[formula] where: n is 4 PMin (bottom of the curve); m is 4 PMax (top of the curve); i is IP (inflection point of curve); and p is slope. See Levenberg, K., “A Method for the Solution of Certain Problems in Least Squares”, Quart. Appl. Math. […] Math.

In order of falling EC50:
1. CCOc1ccccc1C(=O)Nc1cccc2c1C(=O)N(C1CN3CCC1CC3)C2 (racemic) [Compound 107, (R and S)-2-Ethoxy-N-(3-oxo-2-(quinuclidin-3-yl)isoindolin-4-yl)benzamide]  550 nM
2. Cc1nnc(-c2ccc(-c3nccc4c3C(=O)N(C(C3CC3)C(C)(C)O)C4)cc2)o1 (single isomer, unassigned) [Compound 28, (R or S)-2-(1-cyclopropyl-2-hydroxy-2-methylpropyl)-4-(4-(5-methyl-1,3,4-oxadiazol-2-yl)phenyl)-1,2-dihydro-3H-pyrrolo[3,4-c]pyridin-3-one]  540 nM
3. O=C1c2c(cccc2-c2ccccc2OCC(F)(F)F)CN1CCC1CCC(O)C1 (racemic) [Compound 47, (cis and trans racemic)-2-(2-(3-hydroxycyclopentyl)ethyl)-7-(2-(2,2,2-trifluoroethoxy)phenyl) isoindolin-1-one]  380 nM
4. Cc1nnc(-c2ccc(-c3ccnc4c3C(=O)N(C(C3CC3)C(C)(C)O)C4)cc2)o1 (single isomer, unassigned) [Compound 33, (R or S)-6-(1-cyclopropyl-2-hydroxy-2-methylpropyl)-4-(4-(5-methyl-1,3,4-oxadiazol-2-yl)phenyl)-6,7-dihydro-5H-pyrrolo[3,4-b]pyridin-5-one]  350 nM
5. CC(C)(O)C(C1CC1)N1Cc2cccc(/C=C/c3ccc(F)cc3F)c2C1=O (racemic) [Compound 4, (R and S)-(E)-2-(1-cyclopropyl-2-hydroxy-2-methylpropyl)-7-(2,4-difluorostyryl)isoindolin-1-one]  290 nM
6. CCOc1ccccc1C(=O)Nc1cccc2c1C(=O)N(CC1CC3CCN1CC3)C2 (racemic) [Compound 108, 2-Ethoxy-N-(3-oxo-2-(quinuclidin-2-ylmethyl)isoindolin-4-yl)benzamide]  270 nM
7. Cc1nnc(-c2ccc(-c3cncc4c3C(=O)N(C(C3CC3)C(C)(C)O)C4)cc2)o1 (single isomer, unassigned) [Compound 31, (R or S)-2-(1-cyclopropyl-2-hydroxy-2-methylpropyl)-7-(4-(5-methyl-1,3,4-oxadiazol-2-yl)phenyl)-2,3-dihydro-1H-pyrrolo[3,4-c]pyridin-1-one]  180 nM
8. O=C1c2c(cccc2-c2ccc(F)cc2)CN1CCC1CN2CCC1CC2 (racemic) [Compound 52, (R and S)-7-(4-fluorophenyl)-2-(2-(quinuclidin-3-yl)ethyl)isoindolin-1-one]  160 nM
9. CCOc1ccccc1C(=O)Nc1cccc2c1C(=O)N(C(CO)C1CCC1)C2 (racemic) [Compound 101, (R and S)-N-(2-(1-cyclobutyl-2-hydroxyethyl)-3-oxoisoindolin-4-yl)-2-ethoxybenzamide]  160 nM
10. CN(C(=O)OC1CN2CCC1CC2)c1cccc2c1C(=O)N(c1ccc(F)cc1)C2 (racemic) [Compound 170, (R and S)-Quinuclidin-3-yl(2-(4-fluorophenyl)-3-oxoisoindolin-4-yl)(methyl)carbamate]  130 nM
11. Cc1cc(-c2cccc3c2C(=O)N(CCC2CN4CCC2CC4)C3)ccn1 (racemic) [Compound 54, (R and S)-7-(2-methylpyridin-4-yl)-2-(2-(quinuclidin-3-yl)ethyl)isoindolin-1-one]  97 nM
12. COc1cc(C#N)cc(-c2nccc3c2C(=O)N(C(C2CC2)C(C)(C)O)C3)c1 (single isomer, unassigned) [Compound 30, (R or S)-3-(2-(1-cyclopropyl-2-hydroxy-2-methylpropyl)-3-oxo-2,3-dihydro-1H-pyrrolo[3,4-c]pyridin-4-yl)-5-methoxybenzonitrile]  95 nM
13. Cc1cc(-c2cccc3c2C(=O)N(C(C2CC2)C(C)(C)O)C3)cc(C)n1 (racemic) [Compound 20, (R and S)-2-(1-cyclopropyl-2-hydroxy-2-methylpropyl)-7-(2,6-dimethylpyridin-4-yl)isoindolin-1-one]  67 nM
14. Cc1nnc(-c2ccc(-c3cccc4c3C(=O)N([C@H](C3CC3)C(C)(C)O)C4C)cc2)o1 (single isomer, unassigned) [Compound 62, (R or S)-2-((R)-1-Cyclopropyl-2-hydroxy-2-methylpropyl)-3-methyl-7-(4-(5-methyl-1,3,4-oxadiazol-2-yl)phenyl)isoindolin-1-one]  53 nM
15. Cc1nn(C)c(C)c1-c1cccc2c1C(=O)N(CCC1CN3CCC1CC3)C2 (racemic) [Compound 53, (R and S)-2-(2-(quinuclidin-3-yl)ethyl)-7-(1,3,5-trimethyl-1H-pyrazol-4-yl)isoindolin-1-one]  48 nM
16. Cc1ccc(-c2ccc(-c3cccc4c3C(=O)N(C(C3CC3)C(C)(C)O)C4)cc2)nn1 (racemic) [Compound 18, (R and S)-2-(1-cyclopropyl-2-hydroxy-2-methylpropyl)-7-(4-(6-methylpyridazin-3-yl)phenyl)isoindolin-1-one]  45 nM
17. COc1ccc(-c2cccc3c2C(=O)N(C(C2CC2)C(C)(C)O)C3)cc1OC (racemic) [Compound 19, (R and S)-2-(1-cyclopropyl-2-hydroxy-2-methylpropyl)-7-(3,4-dimethoxyphenyl) isoindolin-1-one]  28 nM
18. Cn1cc(-c2ccc(-c3cccc4c3C(=O)N(C(C(C)(C)O)C(F)(F)F)C4)cc2)cn1 (single isomer, unassigned) [Compound 43, (R or S)-7-(4-(1-methyl-1H-pyrazol-4-yl)phenyl)-2-(1,1,1-trifluoro-3-hydroxy-3-methylbutan-2-yl)isoindolin-1-one]  24 nM
19. Cc1nnc(-c2ccc(-c3cccc4c3C(=O)N(C(C3CC3)C3(O)COC3)C4)cc2)o1 (single isomer, unassigned) [Compound 51, (R or S)-2-(cyclopropyl(3-hydroxyoxetan-3-yl)methyl)-7-(4-(5-methyl-1,3,4-oxadiazol-2-yl)phenyl)isoindolin-1-one]  5.9 nM
20. CC(C)(O)C(C1CC1)N1Cc2ccc(F)c(-c3ccccc3OCC(F)(F)F)c2C1=O (single isomer, unassigned) [Compound 21, 2-((R or S)-1-cyclopropyl-2-hydroxy-2-methylpropyl)-6-fluoro-7-(2-(2,2,2-trifluoroethoxy)phenyl) isoindolin-1-one]  0.91 nM
21. Cc1nnc(-c2ccc(-c3cc(Cl)cc4c3C(=O)N(C(C3CC3)C(C)(C)O)C4)cc2)o1 (single isomer, unassigned) [Compound 39, (R or S)-5-chloro-2-(1-cyclopropyl-2-hydroxy-2-methylpropyl)-7-(4-(5-methyl-1,3,4-oxadiazol-2-yl)phenyl)isoindolin-1-one]  0.8 nM
22. CC(C)(O)C(C1CC1)N1Cc2cc(F)cc(-c3ccccc3OCC(F)(F)F)c2C1=O (single isomer, unassigned) [Compound 23, (R or S)-2-(1-cyclopropyl-2-hydroxy-2-methylpropyl)-5-fluoro-7-(2-(2,2,2-trifluoroethoxy)phenyl) isoindolin-1-one]  0.41 nM
23. COc1ccc(F)c(F)c1C(=O)Nc1cccc2c1C(=O)N(C(C1CC1)C(C)(C)O)C2 (single isomer, unassigned) [Compound 112, (R or S)-N-(2-(1-cyclopropyl-2-hydroxy-2-methylpropyl)-3-oxoisoindolin-4-yl)-2,3-difluoro-6-methoxybenzamide]  0.41 nM
24. Cc1ccc(Cl)c(C(=O)Nc2cccc3c2C(=O)N(C(C2CC2)C(C)(C)O)C3)c1F (single isomer, unassigned) [Compound 111, (R or S)-6-chloro-N-(2-(1-cyclopropyl-2-hydroxy-2-methylpropyl)-3-oxoisoindolin-4-yl)-2-fluoro-3-methylbenzamide]  0.26 nM
25. Cc1ccc(F)c(C(=O)Nc2cccc3c2C(=O)N(C(C2CC2)C(C)(C)O)C3)c1Cl (single isomer, unassigned) [Compound 110, (R or S)-2-chloro-N-(2-(1-cyclopropyl-2-hydroxy-2-methylpropyl)-3-oxoisoindolin-4-yl)-6-fluoro-3-methylbenzamide]  0.21 nM
